# PubChem BioAssay (NCI)
#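 Cultured in 96-well plates, cells were exposed to test compound for 48 hours across five concentrations. GI50 marks 50% less growth. Definition used: TGI = concentration required for complete inhibition of growth.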
# Key:
# Test in all cases: growth of human tumour cells (NCI), 48 h
# EKVX NSCLC = test system: EKVX NSCLC
# CCRF-CEM leukemia = test system: CCRF-CEM leukemia
# T-47D breast = test system: T-47D breast
# SK-MEL-28 melanoma = test system: SK-MEL-28 melanoma
# UACC-257 melanoma = test system: UACC-257 melanoma
# NCI-H23 lung = test system: NCI-H23 lung
# HS 578T breast = test system: HS 578T breast
# K-562 leukemia = test system: K-562 leukemia
# TK-10 renal = test system: TK-10 renal
# PC-3 prostate = test system: PC-3 prostate
# IGROV1 ovarian = test system: IGROV1 ovarian
# CAKI-1 renal = test system: CAKI-1 renal
# SW-620 colon = test system: SW-620 colon
# A498 renal = test system: A498 renal
# NCI-H226 lung = test system: NCI-H226 lung
# MDA-MB-231 breast = test system: MDA-MB-231 breast
SMILES,TGI (EKVX NSCLC) [µM],TGI (CCRF-CEM leukemia) [µM],TGI (T-47D breast) [µM],TGI (SK-MEL-28 melanoma) [µM],TGI (UACC-257 melanoma) [µM],TGI (NCI-H23 lung) [µM],TGI (HS 578T breast) [µM],TGI (K-562 leukemia) [µM],TGI (TK-10 renal) [µM],TGI (PC-3 prostate) [µM],TGI (IGROV1 ovarian) [µM],TGI (CAKI-1 renal) [µM],TGI (SW-620 colon) [µM],TGI (A498 renal) [µM],TGI (NCI-H226 lung) [µM],TGI (MDA-MB-231 breast) [µM],GI50 (CCRF-CEM leukemia) [µM],GI50 (IGROV1 ovarian) [µM],GI50 (CAKI-1 renal) [µM]
COc1ccc2oc(=N)c(C(=O)Nc3ccccc3)cc2c1,> 100,37.1,> 100,> 100,> 100,51.8,39.6,4.19,> 100,> 100,97.4,> 100,80.9,39.8,> 100,> 100,–,–,–
C/C1=C\[C@H](C)C[C@H](C)OC(=O)[C@H](C)NC(=O)[C@@H](Cc2ccc(O)c(Br)c2)N(C)C(=O)[C@H](C)NC(=O)[C@@H](C)C1,> 4.7,> 10.3,> 25,> 10.6,14.8,> 25,3.76,> 25,0.269,24.6,0.105,0.0274,> 25,0.051,0.787,0.518,–,–,–
C=CC1(C)CC(=O)C2(O)C(C)(O1)C(OC(C)=O)C(O)C1C(C)(C)CCC(O)C12C (stereo not given),> 150,> 150,–,> 150,> 150,> 150,–,> 150,> 34.6,–,> 121,58.8,> 150,> 150,> 72.8,–,> 65.8,> 77.2,> 55.2
COc1ccc(N2C(=O)C3c4[nH]c5cc(C)ccc5c4C4CCC(C(C)(C)C)CC4C3C2=O)cc1 (stereo not given),> 10,> 10,> 10,> 10,–,> 10,> 10,> 10,> 10,> 10,> 10,> 10,> 10,> 10,> 10,> 10,–,–,–
COC1OC2COC(c3ccccc3)OC2C(O)C1OC(=S)c1ccccc1 (stereo not given),51.7,48.5,85,> 100,> 100,> 100,> 100,> 100,> 100,57.2,> 100,80.4,> 100,> 100,> 100,> 100,–,–,–
CC1(C)CCc2c(ccc(C(=O)/C=C/c3ccc(O)cc3)c2O)O1,10.1,13.2,21,17,23.4,22.7,27.2,75,20,17.8,19.9,15.8,24.4,29.8,22.3,18.9,–,–,–
OC(C#CCN1CCCC1)(c1ccccc1)c1ccccc1Cl (stereo not given),> 100,> 100,> 100,32.2,40.3,> 100,73.6,> 100,> 100,80.2,73.6,93.6,39.3,66.8,> 100,> 100,–,–,–
